Columns and labels:
human αvβ3 receptor = human αvβ3 receptor (Homo sapiens, UniProt P05106+P06756); assay: Displacement of the binding Vitronectin/Vitronectin receptor (αvβ3), competition test; conditions: human vitronectin coated plates, 3 hours at ambient temperature, read-out: Competition test Vn/VR (αvβ3) binding IC50 en
Method: 1—Study of the Products of the Invention on the Displacement of the Binding: Vitronectin/Vitronectin Receptor (αvβ3) […]
MaxiSorp 96-well plates are coated overnight at 4° C., with 100 μl of human Vitronectin (cf Yatohgo et al. Cell., Structure and fraction 13: 281-292 (1988)) at 2 μg/ml, (Dilution in coating buffer).
The next day, the wells are emptied and the ligands (Vitronectin) are then fixed (see fixing buffer) for one hour at ambient temperature under gentle agitation.
The wells are washed six times (see washing buffer), then the following are added to each well and in this order:
40 μl of incubation buffer, 10 μl of the dilution of the product to be tested, (the products are diluted in a 50/50 mixture of DMSO-H2O) 50 μl of human αvβ3 receptor (cf Pytela et al. Methods Enzymol (1987) 144:475) (dilution in incubation buffer, to be adapted according to the receptor batch and according to the ligand).
The ligand, the human αvβ3 receptor and the products to be studied are incubated for 3 hours at ambient temperature under gentle agitation.
The wells are again washed six times, then incubated for 2 hours at ambient temperature under gentle agitation, in the presence of 100 μl of anti-receptor, 4B12-HRP antibody coupled to a peroxidase (the 4B12-HRP antibody is diluted in an incubation buffer. The dilution is to be adapted according to the receptor batch).
This kit contains a bottle A of substrate (3,3′,5,5′-tetramethylbenzidine at 0.4 g/l) and a bottle B (H2O2 at 0.02% in a citrate/citric acid buffer). Extemporaneously, a volume of A is mixed with a volume of B, then the reaction mixture is distributed at a rate of 100 μl/well. The enzymatic reaction develops over […] for Vitronectin/αvβ3, then its development is stopped by the addition of 100 μl of 1M phosphoric acid. The optical density is measured at 450 nm. […]
coating buffer: Carbonate 0.05 M, NaOH pH 9.6 fixing buffer: PBS containing 0.5% BSA (pH 7.4) washing buffer: PBS containing 0.05% Tween 20 (pH 7.4)
Expression of the Results:
The following curve is traced: the percentage of binding of the human vitronectin as a function of the logarithm of the concentration of each product tested.
For each product the IC50 is determined according to the following formula:
BO=Maximum binding in the absence of any product
Bmin=Minimum binding in the presence of the highest concentration of product.

[1] = test system: bone resorption (skullcaps of new-born mice); assay: Test of mouse calvarium: bone resorption by release of 45Ca from skullcaps of new-born mice, ex-vivo; conditions: Mus musculus, inhibition of bone resorption (45Ca release) in half-calvaria, 48 hours contact, read-out: Mouse cavarium % inhibition at 10 μM
From the text: 2—Test of Mouse Calvarium
Injection of a tracer dose of ^45Ca (CaCl2) to gestating female mice in order to study bone resorption by measuring the release of ^45Ca from the skullcaps of new-born mice.
Determination of the activity of a molecule on bone resorption, ex-vivo study.
Vehicle: DMSO, H2O/BSA (0.1%)
Dose: Variable ([…] in screening).
Echistatin (ref. H-9010-BACHEM)
^45Ca in the form of an aqueous solution of CaCl2—ref. CES3 AMERSHAM or NEZ-013 NEN.
Vehicle: Physiological serum
Dose: 25 μCi/mouse/0.4 ml
CMRL 1066 with phenol red (ref. 041-01535 M/GIBCO) supplemented by 0.1% BSA and penicillin/streptomycin.
1) Injection of ^45Ca to Gestating Mice (OF1, Strain: Swiss)
a) Preparation of the Labelled Solution:
190 μl of the mother solution of calcium at 2 mci/ml is added to 6 ml of physiological serum.
On the 17th day of gestation the mice receive 400 μl of this solution by intravenous route, that is 25 μCi/mouse.
2) Removal of the Tissue (Skullcap (Calvarium))
Six days after their birth the new-born mice are decapitated, then the head is recovered, and the skin is incised from the nape to the front. The skullcap is removed by cutting it out with scissors, and using a punch two exactly identical half-calvaria (one on the left and one on the right) are cut from the parietal bones. One will serve as the control, the other will be used to test the product to be studied.
Each half calvarium is placed in a well of a 24-well plate, containing 1 ml of medium, on a 100 μm polyethylene and nylex support, in order to avoid all contact with the bottom of the well.
After 24 hours, the polyethylene supports carrying the calvaria are transferred into new 24-well plates containing 1 ml of fresh medium and the products to be tested or their solvents. 200 μl of medium from the first plates is removed from each well and a first count of the radioactivity is carried out (value A).
This change of medium allows all the mechanical stress associated with the removal to be eliminated.
48 hours after putting the tissues in contact with the studied products, 200 μl of medium is removed from each well and counted (value B), so as to determine the quantity of ^45Ca released from the medium during the so-called resorption phase.
The calvarium is then completely demineralized in 1 ml of 5% trichloracetic acid and after digestion, 200 μl is also removed and counted so as to determine the quantity of calcium remaining in the bone (value C). Expression of the results
A % of bone resorption is calculated for each half-calvarium (each well) in the following manner:
% bone resorption=dpm B/dpm (A+B+C)×100
The sum of dpm A+B+C represents the quantity of ^45Ca incorporated in each bone part on the day of removal.
In order to measure the effect of a product, the ratio of the percentage of bone resorption of the treated well and of the corresponding control well is calculated for each point. The value found called the resorption index is comprised between 0 and 1 if the product inhibits bone resorption and is >1 if the product potentializes it. The average of the 6 indices (since there are 6 points/group) of each product is then calculated which gives one index/product. If this index is subtracted from the value 1, the inhibitory power of the product is obtained, which can be expressed as a percentage.
Furthermore a statistical test (Student T-test) is carried out by comparing point/point the individual resorption indices.

IC50 (human αvβ3 receptor): 30 nM
Compound: COc1c(OCCC(NC(=O)OCc2ccccc2)C(=O)O)cc2c(c1OC)C1=C(CCC1)C(=NNC1=NCCN1)CC2 (racemic) [EX. 24, O-[4-[(4,5-dihydro-1H-imidazol-2-yl)hydrazono)-9,10-dimethoxy-1,2,3,4,5,6-hexahydro-8-benz(e)azulenyl]-N-[(phenylmethoxy)carbonyl]-DL-homoserine]
inhibition at 10 µM [1]: 18%

— patent US6459001B1 (Aventis Pharma S.A., priority 1997, dated 2002)
